In article PMC11036078, “PD‐1 inhibition with retifanlimab and/or arginase inhibition with INCB001158 in Japanese patients with solid tumors: A phase I study” (Cancer Medicine, 2024):
Several values for one entry are separate records, joined by “and”; a condition that tells them apart may be missing. Equal values may be shown once. Read-outs that look alike come from different tables or passages of the source.

Assays:
advanced solid tumors = assay: Clinical activity by investigator per RECIST v1.1 (ORR, DCR, DOR); assay type: in vivo, Japanese patients; settings: n = 6 per group
Experimental: Preliminary clinical activity of single‐agent retifanlimab and INCB001158, and the combination, was an additional secondary endpoint. Diagnostic imaging was performed by computed tomography scan every 8 ± 1 weeks. Clinical activity was assessed by measuring overall response rate (ORR), defined as the percentage of patients experiencing a complete or partial response (CR or PR) as determined by the investigator according to Response Evaluation Criteria in Solid Tumors (RECIST) v1.1; disease control rate (DCR), defined as the percentage of patients maintaining either an objective response or stable disease (SD) for at least 12 weeks per RECIST v1.1; and duration of response (DOR), defined as the time from first observed response until onset of progressive disease (PD) as determined by the investigator according to RECIST v1.1 or death from any cause.
Safety and efficacy analyses were conducted in the full analysis set, which comprised all enrolled patients who received at least 1 dose of the study drug.
Safety data were summarized using descriptive statistics. PK parameters were summarized by study part, treatment regimen, cohort, dose levels, and/or visit. ORR and DCR were reported with their exact 95% confidence intervals (CIs); DOR was based on the Kaplan–Meier estimate of the distribution function, and the estimated median along with 95% CI was reported. Statistical analyses were performed using SAS® software v9.4 or later (SAS Institute Inc., Cary, NC, USA).

[1] = INCB001158 plasma pharmacokinetics (LC-MS/MS, noncompartmental analysis); assay type: in vivo, Japanese patients; settings: for Cmax: read-out: INCB001158 geometric mean Cmax
Experimental: Pharmacokinetics of single‐agent retifanlimab and INCB001158, and the combination, were secondary endpoints of the study. The detection of anti‐drug antibodies (ADAs) was an exploratory endpoint. Blood samples for retifanlimab PK assessments were taken on days 1 (−2 h pre‐dose, end of infusion, and 6 h post‐dose), 2, 8, and 15 (no specified time) of cycle 1, day 1 of cycles 2–8 (−2 h pre‐dose, and end of infusion on cycles 2 and 6 only), and day 1 of every 4 cycles after cycle 8 (−2 h pre‐dose). Samples for ADA assessment were collected at the same time as for PK analysis, and an additional sample was collected at safety follow‐up on day 15 (no specified time). Blood samples for INCB001158 were collected pre‐dose, 0.5, 1, 2, 4, 6, and 8 h post‐dose on days 1 and 15 of cycle 1, 12 h post‐dose on day 1 of cycle 1, and pre‐dose on days 2 and 8 for cycle 1, and day 1 of cycle 2. Serum concentrations of retifanlimab were determined using an electrochemiluminescence immunoassay method, and plasma concentrations of INCB001158 were measured using a validated liquid chromatography with tandem mass spectrometry assay (Incyte Corporation, Wilmington, DE, USA). ADAs against retifanlimab were monitored using a bridging immunoassay (Incyte Corporation).
Pharmacokinetics parameters were derived from concentrations versus time data using model‐independent noncompartmental analysis methods (WinNonlin v8.2, Certara USA Inc., Princeton, NJ, USA), and included maximum observed serum or plasma concentration (C max), serum or plasma concentration observed at the end of the dosing interval (C tau), time to maximum observed serum or plasma concentration (t max), area under the serum or plasma concentration–time curve (AUC) from time 0 to the end of the dosing interval (AUCtau), AUC from time 0 to infinity (AUC0‐∞), apparent terminal‐phase disposition half‐life, clearance, and volume of distribution. […]

arginase [2] = tested on: arginase; design: method as in earlier work; settings: phase I/II studies; cited from earlier work
tumor growth = tested on: tumor growth; design: method as in PMID 29254508; settings: preclinical; cited from earlier work
urea cycle = assay: Pharmacodynamics: urinary orotic acid and plasma ammonia (urea cycle inhibition); assay type: in vivo, Japanese patients
Experimental: (§1) Pharmacodynamics of INCB001158 alone or in combination were assessed as an exploratory objective. Urine was collected at regular intervals from patients in the INCB001158 monotherapy and combination groups to assess urinary orotic acid levels and evaluate whether INCB001158 inhibits the urea cycle. Plasma samples from patients in these groups were also assessed for ammonia, arginine, and ornithine levels.

arginase [3] = assay: Pharmacodynamics: plasma arginine levels; assay type: in vivo, Japanese patients; settings: change from baseline
Experimental: as §1

T‐cell proliferation = tested on: T‐cell proliferation; design: method as in PMID 29254508; settings: preclinical; cited from earlier work
[4] = tested on: advanced/metastatic solid tumours; settings: cited from earlier work
[5] = steady-state, 100 mg BID oral, monotherapy: two individual values (n = 2), combination n = 5 mean ± SD (geometric mean)
[6] = INCB001158 monotherapy, 33 patients with microsatellite‐stable metastatic colorectal cancer
[7] = in combination with gemcitabine/cisplatin, phase I/II, advanced biliary tract cancer
[8] = in combination with pembrolizumab, 43 patients with microsatellite‐stable colorectal cancer

C[C@H](N)C(=O)N1C[C@H](CCCB(O)O)[C@](N)(C(=O)O)C1 [INCB001158]
Best overall response: Complete response (advanced solid tumors; RECIST v1.1, investigator): 0 n (%)
Best overall response: Partial response (advanced solid tumors; RECIST v1.1, investigator): 0 n (%)
Best overall response: Progressive disease (advanced solid tumors; RECIST v1.1, investigator): 3 (50.0) n (%)
Best overall response: Stable disease (advanced solid tumors; RECIST v1.1, investigator): 3 n (%) and 3 (50.0) n (%)
Objective response rate (advanced solid tumors; RECIST v1.1, investigator): 0 [0–45.9] n (%) [95% CI]
DCR (advanced solid tumors; RECIST v1.1, 95% CI, 11.8–88.2): 50%
PK of INCB001158 in combination with retifanlimab versus INCB001158 monotherapy ([1]; Japanese patients): comparable
Drug–drug interaction (INCB001158 PK, combination vs monotherapy cohorts) ([1]; combination cohort): no drug–drug interaction
AUC ([1]; human, plasma, oral, 100 mg, first dose, 100 mg BID monotherapy, read-out: INCB001158 geometric mean AUC0‐∞): 17900 ng·h/mL
AUC ([1]; human, plasma, oral, 100 mg, first dose, 100 mg BID monotherapy, read-out: INCB001158 geometric mean AUCtau): 13700 ng·h/mL
Cmax ([1]; human, plasma, oral, 100 mg, first dose, 100 mg BID monotherapy): 1740 ng/mL
Tmax ([1]; human, plasma, oral, 100 mg, first dose, 100 mg BID monotherapy, read-out: INCB001158 median tmax): 3.9 h
AUC ([1]; human, plasma, oral, 100 mg, steady‐state, 100‐mg BID monotherapy, read-out: INCB001158 geometric mean AUCtau): 23200 ng·h/mL
Cmax ([1]; human, plasma, oral, 100 mg, steady‐state, 100‐mg BID monotherapy): 2690 ng/mL
Tmax ([1]; human, plasma, oral, 100 mg, steady‐state, 100‐mg BID monotherapy, read-out: INCB001158 median tmax): 3.8 h
Tmax ([1]; human, plasma, po, 75 mg, first dose, 75 mg BID oral, n = 3, median (min, max), read-out: INCB001158 tmax): 3.9 h
Tmax ([1]; human, plasma, po, 75 mg, steady-state, 75 mg BID oral, n = 3, median (min, max), read-out: INCB001158 tmax): 3.9 h
Tmax ([1]; human, plasma, po, 100 mg, first dose, 100 mg BID oral, monotherapy n = 3, combination n = 6, median (min, max), read-out: INCB001158 tmax): 3.9 h
Tmax ([1]; human, plasma, po, 100 mg, steady-state, 100 mg BID oral, monotherapy n = 3, combination n = 5, median (min, max), read-out: INCB001158 tmax): 3.8 h
Vd/F ([1]; human, plasma, po, 100 mg, steady-state, 100 mg BID oral, monotherapy: two individual values (n = 2), combination n = 5 mean ± SD (geometric mean), read-out: INCB001158 Vz/F): 44.9 L
half-life ([1]; human, plasma, po, 100 mg, steady-state, 100 mg BID oral, monotherapy: two individual values (n = 2), combination n = 5 mean ± SD (geometric mean), read-out: INCB001158 t½ (converted)): 6.25 h
INCB001158 Vz/F [1, 5]: 39.3 L
INCB001158 t½ [1, 5]: 5.50 h
INCB001158 geometric mean Ctau ([1]; steady‐state, 100‐mg BID monotherapy): 1130 ng/mL
Plasma arginine levels (arginase [2]): increase in plasma arginine levels
Antitumor activity in mouse models (tumor growth): demonstrated antitumor activity
Tumor growth when combined with ICB (tumor growth): synergistically inhibited tumor growth
Urine orotic acid (urea cycle; change from baseline): no marked rises
Symptoms of significant urea cycle inhibition (urea cycle; e.g., unexplained anorexia, nausea, vomiting): no symptoms
Plasma ammonia (urea cycle; patients receiving INCB001158): no concurrent increases
Urea cycle inhibition (urea cycle; patients receiving INCB001158): no evidence of consistent urea cycle inhibition
Plasma arginine levels (arginase [3]): Immediate and consistent increases
T‐cell proliferation in the presence of inhibitory granulocytes (T‐cell proliferation): restored T‐cell proliferation
DCR [4, 6]: 27%
Number of PRs [4, 6]: 1
ORR [4, 7]: 24%
Patients with SD [4, 7]: 42%
DCR [4, 8]: 30%
Number of PRs [4, 8]: 3
